This series can be described thus: Human HepG2 cell viability assay in 384 well format. The settings on record: HepG2 cells, read-out: Inhibition. The series is classed as toxicity, cell-based. More on the design: dose 125 nL, time 70.5 hour; concentration not given beside the values.

The record followed here is ChEMBL document CHEMBL3507680, “University of Dundee, Gates Library screen for HepG2 cell viability”.

Take `O=C(NCC1CC1)c1cc2c(s1)CCN2C(=O)c1cccnc1`: the cytotoxicity at 70.5 h was -8.04%. To `CO[C@@H]1CC[C@H]2[C@H]1OCCN2S(=O)(=O)C1CC1` belongs -9.16%. Take `Cn1cc(C2CC(=O)NC23CCN(C(=O)NC2CC2)CC3)cn1` (centres undefined): the cytotoxicity at 70.5 h was -6.56%. To `CN(C)C(=O)N1CCC2(C1)CN(c1cccnc1)C(=O)CN2C` (centres undefined) belongs -7.38%.

As to `O=C(NCC1CC1)[C@@H]1C[C@@H]2CCN(Cc3ccoc3)C[C@@H]2O1`, the cytotoxicity at 70.5 h came out at 2.93%.

As to `O=C(NCC1CCCO1)c1nc2c(s1)CCCN2c1ncccn1` (centres undefined), the cytotoxicity at 70.5 h was found to be 24.3%. To `O=C(c1cnccn1)N1CCN(Cc2cccnc2)c2ncccc2C1` belongs -8.24%. Turning to `CN(Cc1cccnc1)[C@@H]1CN(Cc2ccccn2)[C@@H]2CCCO[C@H]12`, the cytotoxicity at 70.5 h was -2.2%. Take `Cc1cccc(CN2C(=O)CCC23CCN(Cc2nccn2C)CC3)n1`: the cytotoxicity at 70.5 h was -4.21%. In the case of `Cc1ccc(CN2CC[C@H]3OCC[C@@]3(C(=O)N3CCCO3)C2)s1` it was -5.95%; in that of `CC1c2ncc(Cn3cncn3)n2CCN1C(=O)N(C)C` (centres undefined), -7.73%. To `CC(C)Nc1nc(N2CCCC2)nc2c1CN(c1ncc(F)cn1)CC2` belongs -7.8%; to `O=C1CC2(CCN(c3nncs3)C2)CN1c1ccccc1` (centres undefined), -1.13%. To `Cn1cc(CN2CC[C@@H]3O[C@H](C(=O)N4CCOCC4)C[C@@H]32)cn1` belongs -5.63%; to `CC(C)CC(=O)N1CC[C@@H]2[C@H](CC1)N(S(C)(=O)=O)CCS2(=O)=O`, -4.28%. Consider `O=C(N[C@@H]1CN(Cc2ccc3c(c2)OCO3)[C@@H]2CCCO[C@@H]21)C1CC1`, for which the cytotoxicity at 70.5 h amounted to 8.84%. To `O=C(c1cnccn1)N1CCN(Cc2ccncc2)c2ncccc2C1` belongs -5.23%. In the case of `Cc1oncc1C(=O)N1CCC2(C1)CN(c1cccnc1)C(=O)CN2C` (centres undefined) it was -0.201%; in that of `O=C(N[C@@H]1CN(Cc2ccsc2)[C@@H]2CCCO[C@@H]21)C1CC1`, 9.03%; in that of `COCCNC(=O)c1cc2c(s1)CCN2C(=O)c1ccccc1`, 6.46%. Regarding `O=C(NCc1ccco1)[C@H]1C[C@H]2OCC[C@H]2N(C(=O)c2ccco2)C1`, the cytotoxicity at 70.5 h was -8.55%. To `COC(=O)CCC(=O)N1CCC2(CN(Cc3cccc(F)c3)C2)C1` belongs 0.281%; to `CC(C)Nc1nc(N2CCCC2)nc2c1CN(C(C)C)CC2`, 0.846%. To `CC(C)NC(=O)C1CN(C(N)=O)Cc2ccnn2C1` (centres undefined) belongs -17.9%; to `CN(Cc1ccccn1)C(=O)[C@]12COC[C@H]1CN(Cc1cnn(C)c1)C2`, -15.4%. In the case of `Cn1cc(CN2CCCn3cnc(COCC4CC4)c3C2)cn1`, the cytotoxicity at 70.5 h is -12.6%. Regarding `Cc1cnc(N2C[C@H]3C[C@H](C(=O)N(C)C)[C@@H](C2)O3)nc1`, the cytotoxicity at 70.5 h is -13.5%. Take `CCOCC1CN(S(C)(=O)=O)Cc2cnn(C)c21` (centres undefined): the cytotoxicity at 70.5 h is -11.1%.

As for `Cc1ccoc1C(=O)N1CCO[C@H]2[C@H](OCC3CCOCC3)CC[C@@H]21`, the cytotoxicity at 70.5 h is -15%. To `CC(C)N1CCc2c(CN(C)Cc3ccco3)cncc2C1` belongs 5.22%. To `c1cncc(N2CCC3(CCCN(c4ccncc4)C3)CC2)c1` belongs -6.14%.

`COCCNC(=O)[C@H]1C[C@@H]2CCN(c3ccncn3)C[C@H]2O1`: the cytotoxicity at 70.5 h came out at 1.69%. In the case of `Cc1ccc(CN2CC[C@H]3OCC[C@@]3(C(=O)N3CCCO3)C2)o1` it was 2.99%; in that of `O=C(c1cnccn1)N1CCCC2(CCN(Cc3ccsc3)C2)C1` (centres undefined), -5.33%.

For `O=C(c1cnccn1)N1CC2(CCN(Cc3ccsc3)C2)C1`, the cytotoxicity at 70.5 h is -4.05%. To `Cc1ccsc1CN1CC[C@H]2OCC[C@@]2(C(=O)N2CCCO2)C1` belongs 22.9%. In the case of `O=C(N1CCCO1)[C@@]12CCO[C@@H]1CCN(Cc1cccs1)C2` it was 34.4%. `CCOCC1CN(C(=O)c2cnoc2C)Cc2cnn(C)c21` (centres undefined): the cytotoxicity at 70.5 h is -12.5%. In the case of `CC(=O)NCC(=O)N1CCOC2(CCCN(c3cccnc3)C2)C1` (centres undefined), the cytotoxicity at 70.5 h stood at 14.8%. In the case of `Cc1nc(N(C)C)nc2c1COCC21CCN(CC2CC2)C1` (centres undefined) it was 5.56%; in that of `O=C([C@@H]1C[C@H]2[C@H](CCN2Cc2nccs2)O1)N1CCOCC1`, -8.03%; in that of `Cc1ccc(CN2CCC3(CC2)C(=O)N(C)c2ccccc23)s1`, 0.079%. On to `CC1=N[C@@]2(CC[C@@H]3CN(Cc4ccccc4F)C[C@@H]32)C(=O)N1CC1CC1`, for which the cytotoxicity at 70.5 h was -0.339%.

In the case of `CCC1=N[C@@]2(CC[C@@H]3CN(Cc4ccccc4F)C[C@@H]32)C(=O)N1CC`, the cytotoxicity at 70.5 h was -6.42%. To `O=C(NCc1ccco1)[C@@H]1CCO[C@@H]2CCN(c3ccncn3)C[C@H]21` belongs -2.41%. In the case of `O=C(NCC1CCOCC1)[C@@H]1C[C@@H]2CCN(Cc3ccco3)C[C@H]2O1` it was -5.42%; in that of `O=C(N1CCCO1)[C@@]12CCO[C@@H]1CCN(Cc1ccccc1)C2`, -5%; in that of `CN(C)C(=O)N[C@@H]1CN(Cc2ccc3c(c2)OCO3)[C@@H]2CCCO[C@@H]21`, 3.25%. To `CCS(=O)(=O)N1CCC[C@]2(C(=O)N(C)C)CN(c3ncccn3)C[C@@H]2C1` belongs 11.9%; to `O=C(c1cnccn1)N1CCOC2(CCN(Cc3ccsc3)CC2)C1`, 4.24%. In the case of `Cn1cc(C2CC(=O)NC23CCN(CC2CC2)CC3)cn1` (centres undefined), the cytotoxicity at 70.5 h is 9.8%. On to `Cc1ccoc1C(=O)N1CCO[C@H]2[C@H](OCCN(C)C)CC[C@@H]21`, for which the cytotoxicity at 70.5 h was -12.4%. In the case of `Cc1ccc(CN2CCc3ncnc(-c4ccc(F)cc4)c3CC2)o1` it was -14.6%; in that of `O=C(c1ccnnc1)N1CCN2C[C@H](Oc3cccc(F)c3)C[C@H]2C1`, -5.78%; in that of `c1nc(COCC2CC2)c2n1CCCN(CC1CC1)C2`, -18.3%.

Regarding `CC[C@@H]1N(CC2CC2)CCC[C@]12CCC(=O)N2CCOC`, the cytotoxicity at 70.5 h was -9.87%. Turning to `Cc1nc(COCc2cnc3n2CCN(C2CCC2)C3C)cs1` (centres undefined), the cytotoxicity at 70.5 h is -12.4%.

In the case of `Cc1nc(COCc2cnc3n2CCN(CC2CCC2)C3C)cs1` (centres undefined), the cytotoxicity at 70.5 h is -5.9%. In the case of `Cc1ccc(CN2C[C@@H]3COC[C@@H](NS(C)(=O)=O)[C@@H]3C2)o1` it was -18.3%; in that of `Cc1cc(C(=O)N2CCC3(C2)CN(c2cccnc2)C(=O)CN3C)[nH]n1` (centres undefined), -10.2%; in that of `Cc1cccc(CN2CCc3cc(C(=O)O)c(N(C)C)nc3CC2)n1`, -5.66%. In the case of `CC(C)Nc1nc2c(cc1C(=O)O)CCN(Cc1ccsc1)CC2`, the cytotoxicity at 70.5 h is -6.73%. In the case of `O=C(NCc1cccnc1)[C@H]1C[C@@H]2CCN(c3ccncn3)C[C@H]2O1` it was -5.01%.

Turning to `CCCN1CC[C@@H]2OC[C@H](C(=O)Nc3cccnc3)C[C@@H]2C1`, the cytotoxicity at 70.5 h is 2.64%. In the case of `CN(Cc1cccnc1)[C@@H]1CN(C(=O)CC2CC2)[C@@H]2CCCO[C@H]12` it was 0.0586%. To `COCCN1CCC2(CCC(=O)N2Cc2csc(C)n2)CC1` belongs -7.09%.

For `O=C(N1CCCC1)N1CCN(Cc2cccnc2)c2ncccc2C1`, the cytotoxicity at 70.5 h is -10.8%. To `O=C(CC1CC1)N1CCN(Cc2cccnc2)c2ncccc2C1` belongs -9.33%; to `Cc1nc(CN2C(=O)CCC23CCN(Cc2ccccn2)CC3)cs1`, -6.85%. To `c1ccc(CN2CC[C@H]3CO[C@H](CNc4ncccn4)[C@H]3C2)cc1` belongs -5.27%. To `Cn1ccnc1CN1CCC2(CCC(=O)N2CCN2CCCC2)CC1` belongs -8.64%; to `CN(C)CCOCc1nnc2n1CCN(Cc1ccco1)CC2`, -4.62%. As to `CC(C)COCC1CN(Cc2ccc3c(c2)OCO3)Cc2ncn(C)c21` (centres undefined), the cytotoxicity at 70.5 h was determined as 45.7%. Regarding `Cc1ccc(CN2CCC3(CC2)CC(c2cccnc2)CO3)s1` (centres undefined), the cytotoxicity at 70.5 h was determined as 2.33%.

As for `CCCC(=O)N1CC[C@@H]2[C@H](CC1)N(Cc1cccnc1)CCS2(=O)=O`, the cytotoxicity at 70.5 h was determined as 4.18%. For `O=C(Nc1cccnc1)[C@H]1C[C@@H]2CCN(c3nncs3)C[C@H]2O1`, the cytotoxicity at 70.5 h was -1.35%. In the case of `O=C(Nc1cccnc1)[C@H]1CO[C@H]2CCN(c3ncc(F)cn3)C[C@H]2C1` it was 4.85%; in that of `CC(=O)N1CCOCC2(CN(Cc3ccccn3)CCO2)C1` (centres undefined), -9.92%; in that of `CN(Cc1cncnc1)[C@H]1CN(CC2CC2)[C@@H]2CCCO[C@@H]21`, -5.03%. In the case of `CC1c2ncc(CNC(=O)C3CC3)n2CCN1Cc1cnn(C)c1` (centres undefined) it was -12%; in that of `c1ccc(OC[C@]23COC[C@H]2CN(c2ncccn2)C3)nc1`, -9.18%. In the case of `c1cncc(OCc2nnn3c2CN(Cc2ccsc2)CCC3)c1` it was -11.8%; in that of `O=C(NCc1ccccn1)[C@]12COC[C@H]1CN(C1CCC1)C2`, -10.3%; in that of `c1cnc(NC[C@H]2OC[C@@H]3CCN(Cc4cccnc4)C[C@@H]32)nc1`, -12.6%. As to `c1cnc(NC[C@H]2OC[C@@H]3CCN(Cc4nccs4)C[C@@H]32)nc1`, the cytotoxicity at 70.5 h came out at 21.4%. To `c1ccc(CN2CC[C@@H]3[C@@H](CO[C@@H]3CNc3ncccn3)C2)nc1` belongs -7.29%; to `CC(C)N(C)Cc1nnc2n1CCN(Cc1ccncc1)CC2`, -3.24%; to `Cn1cnc2c1C(COCc1ccccc1)N(Cc1ccncc1)CC2` (centres undefined), -3.01%. For the compound `CN1CCN(C[C@@H]2OC[C@H]3CN(Cc4cccc(F)c4)CC[C@H]32)CC1`, the cytotoxicity at 70.5 h stood at 2.68%.
